This note sets out measurements from patent US11999669B1, “Nitrogen activator stabilizer for reducing and protecting nitrogen fertilizer” (KING FAISAL UNIVERSITY, priority 2023, dated 2024).

The nature of the series: Dissolution of ABT-PNB in water. The series is classed as physicochemical. On the procedure:
Referring to Scheme 2 above, reaction of 0.2 mmol ethyl cyanoacetate with 0.2 mmol thiourea under MW-US condition for 5 min afforded compound 1. One pot reaction of 0.1 mmole of the compound (1) with 0.1 mmole of 2-nitro-6-cyanobenzoic acid (2) in boiling 2 mL ethanol under MW reaction condition for 10 min afforded 6-(imidazo[4,5-d]pyrimidin-2yl) benzoic acid derivative 3. Reflux reaction of the 0.01 mol compound 3 with 0.02 mole ethylchloroacetate in 10 mL acetone for 5 h afforded the ester 4. US promoted reaction of the 0.01 mol of the compound 4 was allowed to react with 0.01 mol of 4-(dimethylamino)butylchloride, thereby affording the desired fertilized ionic liquid ABT-PNB.

Consider `CCOC(=O)CSc1nc2c(=O)n(CCCCN(C)C)c(-c3cccc([N+](=O)[O-])c3C(=O)O)nc2[nH]1` [ABT-PNB, 2-(1-(4-(dimethylamino)butyl)-8-((2-ethoxy-2-oxoethyl)thio)-6-oxo-6,9-dihydro-1H-purin-2-yl)-6-nitrobenzoic acid], for which the solubility in water entry is “easily dissolved in water”.
